Experimental findings from patent EP0394928A1, “Topical antiviral pharmaceutical composition containing a nonionic surfactant” (SYNTEX (U.S.A.) INC., priority 1989, dated 1990) are described below.

Molecules are shown by their SMILES. Marks after values point to notes of the source that are not given here. A value given as a limit tells only on which side of the number the result lay.

By logP is commonly meant the decadic logarithm of the partition coefficient of the neutral form, usually between octanol and water.

For data set [1], the system named is HSV-1 (F strain). As to the kind of experiment: Guinea pig model of cutaneous HSV-1 infection, acyclovir creams (Example 9). Particulars: 5% ACV in 5% Nonoxynol-9 cream; once a day for 3 days starting 24 hours post-infection; Day 4; treated vs nontreated side. The class given is in vivo, female Hartley guinea pigs. The source says: In vivo testing for antiviral activity against cutaneous HSV-1 infections is also done using a guinea pig model, for example, by the procedures described by Hubler, W.R., Jr., Troy, D.F., Troll, D., and Jarratt, M., "Guinea Pig Model For Cutaneous Herpes Simplex Virus Infection", J. Invest. Dermatol., 62:92-95 (1974). This procedure is a modification of a procedure initially described by Hubler, W.R., Jr., et al., "Guinea Pig Model Eor Cutaneous Herpes Simplex Virus Infection", J. Invest. Dermatol., 62:92-95 (1974). The backs of female Hartley guinea pigs were shaved, depilated and inoculated with HSV-1 (F strain) in four different areas by multiple shallow punctures. Two quadrants were on the left side and two on the right side of the dorsum. The animals were divided into 3 treatment groups of 6 animals each. The treatment groups were topically administered a cream on one side of the back once a day for 3 days starting 24 hours post-infection, the other side of back was not treated. The creams contained as an active ingredient either 5% acyclovir in a polyethylene glycol (PEG) based cream (Zovirax ®), 5% acyclovir in a 5% Nonoxynol-9 (N-9) cream or 5% Nonoxynol-9 cream only (placebo control). The numbers of lesions which developed on either the treated or untreated side of the back were counted on Day 4 after infection. […]

Data set [2] is described as follows: Partition coefficient (octanol / water). The format is physicochemical. Particulars: for logP: ratio of concentrations in nonpolar medium, e.g. octanol, and aqueous medium, e.g. water. The source says: The modes of action reported for each compound are likewise distinct. Azone has been reported as a penetration enhancer, i.e., when it is co-administered with another agent, Azone will facilitate the movement of the agent into the cell by increasing lipid fluidity (Lambert, et al., (1989), Pharm Res., 6(9):798-803). The enhancement effect has been reported to be more pronounced with lipophilic agents and with agents with higher partition coefficients. A partition coefficient is the ratio of the concentrations of a given compound in a nonpolar medium, e.g., octanol and in an aqueous medium, e.g., water (ACV and DHPG have partition coefficients of less than 0.1, whereas Ada-DHPG has a partition coefficient of about 2.8 x10⁵).

For data set [3], the system named is HSV-1 (F strain). Nature of the data set: Guinea pig model of cutaneous HSV-1 infection, DHPG versus Ada-DHPG in PG, Azone or Nonoxynol-9 creams (Example 10). Particulars: 0.5 ml/animal once a day for 3 days, lesions counted Day 4. The class given is in vivo, female Hartley guinea pigs. The source says: (§1) In vivo testing for antiviral activity against cutaneous HSV-1 infections is also done using a guinea pig model, for example, by the procedures described by Hubler, W.R., Jr., Troy, D.F., Troll, D., and Jarratt, M., "Guinea Pig Model For Cutaneous Herpes Simplex Virus Infection", J. Invest. Dermatol., 62:92-95 (1974).
(§2) This procedure is a modification of a procedure initially described by Hubler, W.R., Jr., et al., "Guinea Pig Model For Cutaneous Herpes Simplex Virus Infection", J. Invest. Dermatol., 62:92-95 (1974).
The backs of female Hartley guinea pigs were shaved, depilated and inoculated with HSV-1 (F strain) in four different areas by multiple shallow punctures. Two quadrants were on the left side and two on the right side of the dorsum. The animals were divided into groups and topically administered a cream on one side of the back (0.5 ml/animal) once a day for 3 days starting […] post infection. The other side of the back was not treated. The cream contained either a formulation of 9-(1,3-dihydroxy-2-propoxymethyl)guanine (DHPG) with Azone, Nonoxynol-9 (N-9), or propylene glycol (PG); or 9-[1,3-di(1-adamantylcarboxy)-2-propoxymethyl]guanine (Ada-DHPG) with Azone, Nonoxynol-9 (N-9), or propylene glycol (PG). Placebo groups were treated with only Azone, Nonoxynol-9 (N-9) or propylene glycol (PG). Both DHPG and Ada-DHPG were run in each test with a single formulation. A total of 4 tests were run. In each study, the number of lesions which developed were counted on Day 4 after infection. The treated side versus nontreated side for the various groups were compared by a percent reduction in the number of lesions which developed.

In data set [4] the test system is HSV-1 (F strain). As to the kind of experiment: Guinea pig model of cutaneous HSV-1 infection, dose response tests in Azone / Nonoxynol-9 creams (Example 8). The format is in vivo, female Hartley guinea pigs. Particulars: once a day 3 days from 24 hours post-infection, Day 4.
Text: as §1, §2
The backs of female Hartley guinea pigs were shaved, depilated and inoculated with HSV-1 (F strain) in four different areas by multiple shallow punctures. Two quadrants were on the left side and two on the right side of the dorsum. The guinea pigs were divided into treatment groups of usually 6 each. Treatment was topically administered once a day for 3 days starting 24 hours post-infection on one side of the back. The other side of the back was not treated. Different treatment groups were administered creams which contained 9-[1,3-di(1-adamantyl-carboxy)-2-propoxymethyl]guanine (Ada-DHPG), (10%, 5%, 2.5%, 1% or 0%) with 5% propylene glycol (PG), or 5% propylene glycol (PG); and either Nonoxynol-9 (5% and 2.5%) or Azone (10% and 5%). Additionally, other groups were administered creams containing Ada-DHPG (10%, 5%, 2.5%, 1% or 0%) with no propylene glycol and either 10% Azone or 5% Nonoxynol-9. Seven dose response tests were run in all. In each test the numbers of lesions were counted on Day 4 after infection. The treated side versus the nontreated side for the various groups were compared by a percent reduction in number of lesions which developed.

Regarding `Nc1nc2c(ncn2COCCO)c(=O)[nH]1` [ACV, 9-(2-hydroxyethoxymethyl)guanine], the “Percent Reduction in numbers of lesions” value in data set [1] is reported as 69* Percent. In data set [2] (octanol/water), the partition coefficient result was “less than 0.1”.
As to `Nc1nc2c(ncn2COC(COC(=O)C23CC4CC(CC(C4)C2)C3)COC(=O)C23CC4CC(CC(C4)C2)C3)c(=O)[nH]1` (stereo not shown) [Ada-DHPG, 9-[1,3-di(1-adamantylcarboxy)-2-propoxymethyl]guanine], the “Percent Reduction in the number of lesions” value in data set [3] (Test 1: 10% Ada-DHPG in 25% PG cream) was 51* Percent; in data set [3] (Test 2: 10% Ada-DHPG in 5% PG cream) it was 42* Percent; in data set [3] (Test 3: 10% Ada-DHPG in 10% Azone cream) it was 76* Percent; in data set [3] (Test 4: 10% Ada-DHPG in 5% Nonoxynol-9 cream), 77* Percent. Also, the “Percent Reduction in number of lesions” value in data set [4] (Test 1: 1% Ada-DHPG, 5% PG (no surfactant added) cream) is on record as 12%; in data set [4] (Test 1: 2.5% Ada-DHPG, 5% PG (no surfactant added) cream), 16%; in data set [4] (Test 1: 5% Ada-DHPG, 5% PG (no surfactant added) cream), 3%; in data set [4] (Test 1: 10% Ada-DHPG, 5% PG (no surfactant added) cream), 37* Percent; in data set [4] (Test 2: 1% Ada-DHPG, 5% Azone cream (with 5% PG)), -6%; in data set [4] (Test 2: 2.5% Ada-DHPG, 5% Azone cream (with 5% PG)), 14%. The “Percent Reduction in number of lesions” value in data set [4] (Test 2: 5% Ada-DHPG, 5% Azone cream (with 5% PG)) is 14%; in data set [4] (Test 2: 10% Ada-DHPG, 5% Azone cream (with 5% PG)), 29%; in data set [4] (Test 3: 1% Ada-DHPG, 10% Azone cream (with 5% PG)) it was 43* Percent; in data set [4] (Test 3: 2.5% Ada-DHPG, 10% Azone cream (with 5% PG)), 35* Percent; in data set [4] (Test 3: 5% Ada-DHPG, 10% Azone cream (with 5% PG)), 73* Percent; in data set [4] (Test 3: 10% Ada-DHPG, 10% Azone cream (with 5% PG)), 78* Percent. Besides, the “Percent Reduction in number of lesions” value in data set [4] (Test 4: 1% Ada-DHPG, 10% Azone (no PG) cream) is 27%; in data set [4] (Test 4: 2.5% Ada-DHPG, 10% Azone (no PG) cream), 18%; in data set [4] (Test 4: 5% Ada-DHPG, 10% Azone (no PG) cream), 27%; in data set [4] (Test 4: 10% Ada-DHPG, 10% Azone (no PG) cream), 47* Percent; in data set [4] (Test 5: 1% Ada-DHPG, 2.5% Nonoxynol-9 cream (with 5% PG)), 33%; in data set [4] (Test 5: 2.5% Ada-DHPG, 2.5% Nonoxynol-9 cream (with 5% PG)), 52* Percent. Further, the “Percent Reduction in number of lesions” value is recorded as 52* Percent in data set [4] (Test 5: 5% Ada-DHPG, 2.5% Nonoxynol-9 cream (with 5% PG)); 64* Percent in data set [4] (Test 5: 10% Ada-DHPG, 2.5% Nonoxynol-9 cream (with 5% PG)); 59* Percent in data set [4] (Test 6: 1% Ada-DHPG, 5% Nonoxynol-9 cream (with 5% PG)); 65* Percent in data set [4] (Test 6: 2.5% Ada-DHPG, 5% Nonoxynol-9 cream (with 5% PG)); 92* Percent in data set [4] (Test 6: 5% Ada-DHPG, 5% Nonoxynol-9 cream (with 5% PG)); 88* Percent in data set [4] (Test 6: 10% Ada-DHPG, 5% Nonoxynol-9 cream (with 5% PG)). For the same compound, the “Percent Reduction in number of lesions” value in data set [4] (Test 7: 1% Ada-DHPG, 5% Nonoxynol-9 (no PG) cream) is 57* Percent; in data set [4] (Test 7: 2.5% Ada-DHPG, 5% Nonoxynol-9 (no PG) cream), 68* Percent; in data set [4] (Test 7: 5% Ada-DHPG, 5% Nonoxynol-9 (no PG) cream), 90* Percent; in data set [4] (Test 7: 10% Ada-DHPG, 5% Nonoxynol-9 (no PG) cream), 82* Percent. Moreover, in data set [2], the logP was roughly 5.45.
Consider `Nc1nc2c(ncn2COC(CO)CO)c(=O)[nH]1` [DHPG, 9-(1,3-dihydroxy-2-propoxymethyl)guanine, reference compound], for which the “Percent Reduction in the number of lesions” value was 75* Percent in data set [3] (Test 1: 4.4% DHPG in 25% PG cream), 68* Percent in data set [3] (Test 2: 4.4% DHPG in 5% PG cream), 100* Percent in data set [3] (Test 3: 4.4% DHPG in 10% Azone cream) and 94* Percent in data set [3] (Test 4: 4.4% DHPG in 5% Nonoxynol-9 cream). Also, the logP in data set [2] was less than -1.
